{"source": "patent US11878016B2", "about": "“Methods and products for treating subjects with autism spectrum disorders” (NEURIM PHARMACEUTICALS (1991) LTD., priority 2021, dated 2024)", "tested_on": "C57BL/6J mice exposed in utero to VPA (and SAL control offspring)", "experiment": "Three chamber test in the valproic acid (VPA) model of autism", "type": "in vivo", "from_the_text": "Furthermore, rodents prenatally exposed to this drug display behavioral phenotypes characteristics of the human autism condition. This model might better represent the many cases of idiopathic autism which are of environmental/epigenetic origins than do transgenic models carrying mutations in single autism-associated genes. The VPA model is an environmentally triggered model with strong construct and clinical validity. The VPA-induced rodent model is an art-recognized and well-established and widely utilized animal model to test putative efficacy of pharmacological agents on behavioral and social elements in the autistic spectrum for humans.\nC57BL/6J mice were obtained at 7-8 weeks of age and were mated, with pregnancy confirmed by the presence of a vaginal plug on embryonic day 0 (E0). On E12.5, pregnant females received a single intraperitoneal injection of sodium salt of valproic acid (VPA, 500 mg/kg) dissolved in saline (SAL). Control females received an equal volume of SAL only. Day of birth was recorded as PO (postnatal day zero). The offspring were weaned on P21 (postnatal day 21) and the male offspring were housed in groups of 4-5. Experiments were carried out on male offspring. The mice were housed in a temperature- and humidity-controlled environment with ad libitum access to food and water. Animals were maintained on a 12 hr light/dark schedule, with lights on at 8 A.M.\nThe male offspring of VPA-treated mice were divided into 4 groups (n=8-9 per group): VPA-Vehicle)+50 μg of ZnSO4, VPA-ticagrelor (0.3 mg/kg)+[…] of ZnSO4, VPA-ticagrelor (10 mg/kg)+50 μg of ZnSO4 and VPA-ticagrelor (30 mg/kg)+50 μg of ZnSO4. The male offspring of SAL-treated mice were divided into 2 groups (n=10 per group): SAL-Vehicle and SAL-ticagrelor (30 mg/kg)+50 μg of ZnSO4. From the sixth week to eight week of age, the mice received three once-weekly injections of either saline (50 μl/g ip) or ticagrelor (i.p.). Twenty-four hours after the last injection, the three chamber test was performed.\nThe three-chamber test assesses cognition in the form of general sociability and interest in social novelty in a rodent model of CNS disorders. This test measures the sociability, the propensity to spend time with another mouse, as compared to time spent alone in an identical but empty chamber.\nThe apparatus was an acrylic box (length: 62 cm, width: 41 cm, height: 30.5 cm) divided into three chambers. A 5 cm×5 cm opening was made on the partitions so that mice could freely explore the three chambers. Mouse was first placed into the centre chamber of the apparatus and allowed 5 min for habituation. Following the completion of the acclimatization period the test mouse was removed to a holding cage, and the bedding material was redistributed. Then a novel mouse enclosed in a tiny cage was placed in one lateral chamber (social area) and an empty tiny cage was placed in the other lateral chamber as a novel object (non-social area). Mouse was first placed into the centre chamber and allowed to freely explore the chambers for 10 min and the time spent in each of the three areas (social, centre, and non-social areas) was recorded.\nStatistical Analyses: Statistical analyses for the data were performed using one-way or two-way RM ANOVA (SigmaStat 3.1). Post-hoc comparisons were performed with the Tukey HSD method. If data were not normally distributed, Kruskal-Wallis one way ANOVA on ranks followed by the Dunn's method was used. All data were represented as mean±SEM. Significant level was set at p<0.05.", "key": {"[1]": {"details": "SAL (control) offspring, ticagrelor 30 mg/kg i.p. + 50 μg ZnSO4, vs SAL-Vehicle, p>0.05"}}}
{"smiles": "CCCSc1nc(N[C@@H]2C[C@H]2c2ccc(F)c(F)c2)c2nnn([C@@H]3C[C@H](OCCO)[C@@H](O)[C@H]3O)c2n1", "note": "[ticagrelor, (1S,2S,3R,5S)-3-[7-[[(1R,2S)-2-(3,4-difluorophenyl)cyclopropyl]amino]-5-(propylthio)-3H-1,2,3-triazolo[4,5-d]pyrimidin-3-yl]-5-(2-hydroxyethoxy)-1,2-cyclopentanediol]", "values": [{"measurement": "time spent in non-social area", "setting": "[1]", "value": "no significant difference"}, {"measurement": "time spent in social area", "setting": "[1]", "value": "no significant difference"}, {"measurement": "time spent in social area", "setting": "VPA offspring, ticagrelor 10 mg/kg i.p. + 50 μg ZnSO4, three once-weekly injections, test 24 h after the last, vs VPA-Vehicle, p<0.01", "value": "significant increase"}, {"measurement": "time spent in non-social area", "setting": "VPA offspring, ticagrelor 10 mg/kg i.p. + 50 μg ZnSO4, vs VPA-Vehicle, p<0.01", "value": "significant decrease"}, {"measurement": "time spent in social area", "setting": "VPA offspring, ticagrelor 30 mg/kg i.p. + 50 μg ZnSO4, three once-weekly injections, test 24 h after the last, vs VPA-Vehicle, p<0.001", "value": "significant increase"}, {"measurement": "time spent in non-social area", "setting": "VPA offspring, ticagrelor 30 mg/kg i.p. + 50 μg ZnSO4, vs VPA-Vehicle, p<0.01", "value": "significant decrease"}, {"measurement": "time spent in centre area", "setting": "VPA offspring, ticagrelor 30 mg/kg i.p. + 50 μg ZnSO4, vs VPA-Vehicle, p<0.05", "value": "significant decrease"}, {"measurement": "deficit in sociability", "setting": "three once-weekly administrations of ticagrelor and zinc salt, C57BL/6J mice exposed in utero to VPA", "value": "attenuated the deficit in sociability"}]}
